Values after ≈ are worked out from the molar mass of the structure shown.
Assays:
[1] = tested on: HepG2 cells; experiment: MTT cytotoxicity assay, HepG2 cells; format: cell-based; settings: Homo sapiens, 48 h treatment, triplicate, mean ±SD, read-out: IC50 (50% inhibition of cancer cell growth)
[2] = tested on: HCT-116 cells; experiment: MTT cytotoxicity assay, HCT-116 cells; format: cell-based; settings: Homo sapiens; HCT-116, MTT, 48 h treatment, triplicate, mean ±SD; read-out: IC50 (50% inhibition of cancer cell growth)

SMILES: COc1cccc2c1C(=O)c1c(O)c3c(c(O)c1C2=O)C[C@@](O)(C(=O)CO)C[C@@H]3O[C@H]1C[C@H](N)[C@H](O)[C@H](C)O1 [DOX, doxorubicin]
- IC50 [1]: 0.38 ± 0.07 µg/mL (≈ 0.699 µM)
- IC50 [2]: 0.86 ± 0.16 µg/mL (≈ 1.58 µM)
